Laboratory results from patent US20260049072A1, “HETEROCYCLIC COMPOUND FOR INDUCING DEGRADATION OF MUTANT KRAS PROTEIN” (Astellas Pharma Inc., priority 2022, published 2026).

Tests used:
AsPC-1 cells = assay: Non-anchorage-dependent cell growth inhibition (spheroid 3D culture), AsPC-1; type: cell-based; conditions: Homo sapiens, ASPC1, 144 h; KRAS G12D mutant-positive, 3D spheroid, six days, CellTiter-Glo 2.0; read-out: AsPC-1 IC50
Experimental: Test Example 3: Evaluation of Non-Anchorage-Dependent Cell Growth Inhibitory Activity on Human KRAS G12V Mutant-Positive Pancreatic Cancer Line PA-TU-8902, Human KRAS G12D Mutant-Positive Pancreatic Cancer Line AsPC-1 or Human KRAS G12C Mutant-Positive Pancreatic Cancer Line MIA PaCa-2
The non-anchorage-dependent cell growth inhibitory activities of subject compounds were evaluated by spheroid 3D cell culture.
PA-TU-8902 cells, AsPC-1 cells or MIA PaCa-2 cells (RIKEN BRC, RCB2094) were seeded at 36 µL/well on a low-cell-adhesive round bottom 384-well plate (Prime Surface: from Sumitomo Bakelite) to give 5×10^2 cells per well. The PA-TU-8902 cells were under the same conditions as in Test Example 1-1, and the AsPC-1 cells were under the same conditions as in Test Example 1-2. For the MIA PaCa-2 cells, RPMI-1640 medium containing 10% fetal bovine serum was used in the presence of 5% CO2 at 37° C.
The next day, the subject compounds (6-9 points having final concentrations in the range of 3 μM to 0.3 nM) and DMSO, which was the solvent for the subject compounds, as a negative control were diluted 100-fold with a fresh medium and were each added at 4 μL per well. After culturing in the presence of 5% CO2 at 37° C. for six days, CellTiter-Glo 2.0 (from Promega) was added at 20 μL per well. After stirring with a plate mixer (from FINEPCR) at normal temperature for an hour, the luminescent signals were measured with ARVO X3 (from PerkinElmer).
With the signaling value in treatment with DMSO taken as 0% inhibition and with the signaling value in the medium alone without cells taken as 100% inhibition, the 50% inhibition values (IC50) were calculated by Sigmoid-Emax model nonlinear regression analysis.

RAS G12V = molecular target: T1, RAS G12V (Homo sapiens, UniProt P01116, G12V); assay: RAS G12V degradation activity, Cell ELISA, PA-TU-8902; type: cell-based; conditions: PA-TU-8902 cells, 24 hours, 100% = Example compound 17 at 1 μM; read-out: DC50 (RAS G12V 50% degradation value)
T1 construct: host or cells: PA-TU-8902 human pancreatic cancer cells
T1 sequence (P01116 1-188 isoform P01116-2 G12V): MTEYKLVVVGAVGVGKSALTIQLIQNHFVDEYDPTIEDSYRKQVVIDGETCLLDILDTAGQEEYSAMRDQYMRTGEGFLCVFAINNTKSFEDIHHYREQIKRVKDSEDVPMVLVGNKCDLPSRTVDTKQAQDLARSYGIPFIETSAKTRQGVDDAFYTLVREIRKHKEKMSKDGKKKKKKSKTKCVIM
Experimental: Test Example 1-1: Evaluation of RAS G12V Degradation Activity on Human KRAS G12V Mutant-Positive Pancreatic Cancer Line PA-TU-8902
The RAS G12V degradation activities of subject compounds were evaluated by measuring the expression levels of RAS G12V by a Cell ELISA method.
PA-TU-8902 cells (DSMZ, ACC 179) were seeded at 36 μL per well on a 384-well plate (from Greiner bio-one) to give 1.5×10^4 cells per well. As for the cell culture conditions, DMEM medium (from Sigma-Aldrich) containing 10% fetal bovine serum (from Cytiva) was used in the presence of 5% CO2 at 37° C.
The next day, the subject compounds (10 points having final concentrations in the range of 3 μM to 0.1 nM), Example compound 17 of a final concentration of 1 μM as a positive control and dimethyl sulfoxide (DMSO), which was the solvent for the subject compounds, as a negative control were diluted 100-fold with a fresh medium and were each added at 4 μL per well, followed by culturing for 24 hours.
The next day, the culture supernatant was removed, and a 4% paraformaldehyde phosphate buffer solution (from FUJIFILM Wako) was added at 20 μL per well. The plate was allowed to stand for 30 minutes at room temperature to thus immobilize the cells. Then, the supernatant was removed, and 0.1% Triton X-100 (from Amersham Biosciences)-containing Phosphate buffered saline (PBS) was added at 20 μL per well. After allowing the plate to stand at room temperature for 10 minutes, the supernatant was removed, and the wells were washed twice in total by adding PBS at 25 μL per well and removing the supernatant. The washing operations below were performed in the same manner. Next, the supernatant was removed, and 0.5% sodium dodecyl sulfate (SDS; from ThermoFisher Scientific)-containing PBS was added at 20 μL per well. After allowing the plate to stand at room temperature for 10 minutes, the plate was centrifuged to remove the supernatant. After washing with PBS, the supernatant was removed by centrifugation, and a blocking solution (PVDF Blocking Reagent for Can Get Signal; from TOYOBO) was added at 20 μL per well. After allowing the plate to stand for 30 minutes at room temperature, the supernatant was removed by centrifugation, and a solution obtained by diluting an anti-Ras (G12V Mutant Specific) antibody (Ras (G12V Mutant Specific) (D2H12) Rabbit mAb; from Cell Signaling Technology; 500-fold dilution) and an anti-3-actin antibody (Anti-beta Actin antibody; from Abcam; 5,000-fold dilution) with Can Get Signal Solution 2 (from TOYOBO) was added at 15 μL per well as primary antibodies. The plate was allowed to stand overnight at 4° C.
The next day, the supernatant was removed by centrifugation, and the plate was washed with PBS. The supernatant was removed by centrifugation, and a solution obtained by diluting an anti-rabbit IgG antibody (IRDye 800CW Goat anti-Rabbit IgG; from LI-COR Biosciences) and an anti-mouse IgG antibody (IRDye 680RD Donkey anti-Mouse IgG; from LI-COR Biosciences) 1,000-fold with Can Get Signal Solution 2 was added at 15 μL per well as secondary antibodies. After allowing the plate to stand at room temperature for an hour, the supernatant was removed by centrifugation, and the plate was washed with PBS. After removing the supernatant, the plate was dried as it was with air at room temperature for two hours or more, and the 700-nm and 800-nm fluorescent signals were measured with Aerius (from LI-COR Biosciences).
With the RAS G12V signaling value at the time of addition of DMSO corrected with the signaling value of 3-actin taken as 0% and with the RAS G12V signaling value at the time of addition of Example compound 17 of a final concentration of 1 μM taken as 100%, the RAS G12V degradation rates were calculated. The 50% degradation values (DC50) were calculated by Sigmoid-Emax model nonlinear regression analysis.

IC50 (AsPC-1 cells) [nM]	DC50 (RAS G12V) [nM]	SMILES
19	10	CO[C@@H](C)COc1cc(OC2CN(C(=O)N3CC(CN(C)C)C3)C2)c2cc(C3CC3)c(-c3c(C)c(F)cc4[nH]ncc34)c(OCc3ccc(-c4cn([C@H](C(=O)N5C[C@H](O)C[C@H]5C(=O)N[C@@H](CO)c5ccc(-c6scnc6C)cc5)C(C)C)nn4)cc3)c2n1 (atropisomer, axis not shown; (M)) [Example 14, (4R)-1-[(2S)-2-(4-{4-[({(7M)-6-cyclopropyl-4-[(1-{3-[(dimethylamino)methyl]azetidine-1-carbonyl}azetidin-3-yl)oxy]-7-(6-fluoro-5-methyl-1H-indazol-4-yl)-2-[(2S)-2-methoxypropoxy]quinolin-8-yl}oxy)methyl]phenyl}-1H-1,2,3-triazol-1-yl)-3-methylbutanoyl]-4-hydroxy-N-{(1R)-2-hydroxy-1-[4-(4-methyl-1,3-thiazol-5-yl)phenyl]ethyl}-L-prolinamide]
14	22	CO[C@@H](C)COc1cc(OC2CN(C(=O)N3CC(CN(C)C)C3)C2)c2cc(C3CC3)c(-c3c(C)c(F)cc4[nH]ncc34)c(OCc3ccc(-c4cn([C@H](C(=O)N5C[C@H](O)C[C@H]5C(=O)N[C@@H](CO)c5ccc(-c6ocnc6C)cc5)C(C)C)nn4)cc3)c2n1 (atropisomer, axis not shown; (M)) [Example 6, (4R)-1-[(2S)-2-(4-{4-[({(7M)-6-cyclopropyl-4-[(1-{3-[(dimethylamino)methyl]azetidine-1-carbonyl}azetidin-3-yl)oxy]-7-(6-fluoro-5-methyl-1H-indazol-4-yl)-2-[(2S)-2-methoxypropoxy]quinolin-8-yl}oxy)methyl]phenyl}-1H-1,2,3-triazol-1-yl)-3-methylbutanoyl]-4-hydroxy-N-{(1R)-2-hydroxy-1-[4-(4-methyl-1,3-oxazol-5-yl)phenyl]ethyl}-L-prolinamide]
10	23	Cc1ncsc1-c1ccc([C@H](CO)NC(=O)[C@@H]2C[C@@H](O)CN2C(=O)[C@H](C(C)C)n2cc(-c3ccc(COc4c(-c5c(C)c(F)cc6[nH]ncc56)c(C5CC5)cc5c(N6CC[C@H]6C(N)=O)nc(OC6CCOCC6)nc45)cc3)nn2)cc1 [Example 35]
19	21	COC(C)(C)COc1cc(OC2CN(C(=O)N3CC(CN(C)C)C3)C2)c2cc(C3CC3)c(-c3c(C)c(F)cc4[nH]ncc34)c(OCc3ccc(-c4cn([C@H](C(=O)N5C[C@H](O)C[C@H]5C(=O)N[C@@H](CO)c5ccc(-n6cncn6)cc5)C(C)C)nn4)cc3)c2n1 (atropisomer, axis not shown) [Example 9]
32	69	CNCCNC(=O)N1CC(Oc2nc(OC[C@H](C)OC)nc3c(OCc4ccc(-c5cn([C@H](C(=O)N6C[C@H](O)C[C@H]6C(=O)N[C@@H](CO)c6ccc(-c7scnc7C)cc6)C(C)C)nn5)cc4)c(-c4c(C)c(F)cc5[nH]ncc45)c(C4CC4)cc23)C1 (atropisomer, axis not shown) [Example 18]
